We go through nine compounds from ChEMBL document CHEMBL1128659, “Tetramic acids as novel glycine site antagonists” (Bioorg Med Chem Lett, 1995).

The target in series [1] is Glutamate receptor ionotropic, NMDA 1 (Rattus norvegicus) (UniProt P35439). The series is described as follows: Inhibition of binding affinity of [3H]L-689,560 to the strychnine insensitive glycine site on rat brain membranes at a concentration of 100 uM. It counts as cell membranes. As to conditions: Membrane.
A short description of series [2]: pKa value was measured. It counts as physicochemical.
Series [3] deals with Glutamate receptor ionotropic, NMDA 1 (Rattus norvegicus, UniProt P35439). The series is described as follows: Inhibition of binding affinity of [3H]L-689,560 to the strychnine insensitive glycine site on rat brain membranes. Format: cell membranes, Membrane.
Series [4] is filed under the species Rattus norvegicus. The series is described as follows: Inhibition of N-Methyl-D-aspartate (NMDA)-induced depolarizations in rat cortical slices. Format: functional.

By inhibition is commonly meant the share of the control response that was lost under treatment. The low end stands for a response near the control, the high end for a response far below the control. In series [1], `O=C1N/C(=C/C2CC2)C(O)=C1c1ccccc1` registered an inhibition of 18%.

As usually defined, the pKa is the pH at which an ionisable group is half protonated. `O=C1C=C(O)CN1` returned a pKa in series [2] of 6.4.

What is called IC50 is the concentration needed to halve the response being measured. Higher therefore signals lower potency. In series [3], `O=C1N/C(=C\C2CC2)C(O)=C1c1ccccc1` came in with an IC50 of 9.5 µM.

Compound `O=c1cc(O)c2ccc(Cl)cc2[nH]1` gave a pKa in series [2] of 5.8.

As for `CCC/C=C1\NC(=O)C(c2ccccc2)=C1O`, the IC50 in series [3] came to 15.7 µM. In series [4], this compound registered a Kb of 154 µM.

The compound `O=C1N/C(=C\c2ccccc2)C(O)=C1c1ccccc1` registered an IC50 in series [3] of 24.2 µM.

The compound `C=C(C)COc1cccc(C2=C(O)/C(=C\CC)NC2=O)c1` showed an IC50 in series [3] of 3 µM. The compound further displayed a Kb in series [4] of 15.8 µM.

`CC/C=C1/NC(=O)C(c2ccccc2)=C1O`: the IC50 in series [3] amounted to 45.5 µM. This compound also came in with a Kb in series [4] of 115 µM. In addition, the pKa in series [2] stood at 4.6.

In series [3], `CC/C=C1/NC(=O)C(c2cccc(Oc3ccccc3)c2)=C1O` displayed a concentration for half-maximal inhibition (IC50) of 0.7 µM. Also, in series [4], the Kb came out at 6.15 µM.
